Test results taken from patent US7244730B2, “2-iminopyrrolidine derivatives” (Eisai Co., Ltd, priority 2001, dated 2007).
Counter-ions that a name gives are not always drawn. Like-named read-outs stand apart in the source and are kept apart here.

Assays:
[1] = molecular target: T1, thrombin receptor (Homo sapiens, UniProt P25116); test: Receptor binding assay ([3H] high affinity TRAP, platelet membrane)
T1 construct: centrifuged at 40,000 g for 60 minutes to yield platelet membrane; from tissue; host or cells: platelet membrane prepared from donor blood (platelet rich plasma)
T1 sequence (P25116 22-425): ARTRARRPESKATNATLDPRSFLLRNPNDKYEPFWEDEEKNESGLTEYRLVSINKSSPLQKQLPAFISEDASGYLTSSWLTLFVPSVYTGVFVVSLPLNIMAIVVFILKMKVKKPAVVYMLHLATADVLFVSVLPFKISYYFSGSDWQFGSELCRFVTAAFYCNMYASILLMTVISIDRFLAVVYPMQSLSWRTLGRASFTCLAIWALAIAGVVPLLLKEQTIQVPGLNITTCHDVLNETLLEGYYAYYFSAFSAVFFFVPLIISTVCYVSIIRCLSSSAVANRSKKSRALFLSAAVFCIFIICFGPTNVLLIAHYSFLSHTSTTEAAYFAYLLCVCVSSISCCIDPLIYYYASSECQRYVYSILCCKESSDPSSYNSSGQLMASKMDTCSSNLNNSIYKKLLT
Protocol: Blood was sampled from a healthy adult who had taken no drugs for one week, and 3.8% citric acid (a ratio of 1:9 with respect to the blood) was added as an anticoagulant. The mixture was then centrifuged at 100 g for 10 minutes at room temperature to yield platelet rich plasma (PRP). The platelet precipitate obtained by centrifuging the PRP was homogenized with a Dounce homogenizer, and then centrifuged at 40,000 g for 60 minutes to yield platelet membrane. The platelet membrane was suspended in a solution prepared by adding DMSO (dimethyl sulfoxide) at 1% concentration to Buffer 1: a 50 mM Tris-HCl buffer containing 10 mM MgCl2 and 1 mM EGTA (ethylene glycol tetraacetic acid), and the suspension was stored at −80° C. Bovine albumin and DMSO were added to Buffer 1 at 0.1% and 20%, respectively, to make preparation solutions for the test compound. The test compounds (20 μl) diluted at various concentrations with the preparation solutions were added to a 96-well multiscreen plate. […] After then adding 100 μl of the previously prepared platelet membrane suspension (0.4 mg/ml) and mixing, incubation was performed at 37° C. for 1 hour. The reaction mixture was suction filtered and then rinsed 3 times with 200 μl of Buffer 1. Next, 30 μl of liquid scintillator was added for measurement of the radioactivity of the plate using a Top Counter (Packard), the value of the radioactivity in the presence of the test compound minus non-specific binding portion was divided by the specific binding value (the value of the binding in the absence of the compound minus the non-specific binding portion) to determine the binding ratio, from which the IC50 value was calculated. The non-specific binding was the value obtained with addition of 10 μM of high affinity TRAP.

[2] = system: platelet rich plasma (PRP), thrombin-induced platelet aggregation; test: Inhibitory effects on platelet aggregation using platelet rich plasma; assay type: cell-based; conditions: Homo sapiens, 0.1 h, read-out: Thr IC50
Protocol: [Inhibitory Effects on Platelet Aggregation Using Platelet Rich Plasma]
Blood was sampled from a healthy adult who had taken no drugs for one week, and 3.8% citric acid (a ratio of 1:9 with respect to the blood) was added as an anticoagulant. The mixture was then centrifuged at 100 g for 10 minutes at room temperature to yield platelet rich plasma (PRP). The PRP-removed blood was further centrifuged at 1000 g for 10 minutes to yield platelet poor plasma (PPP). The number of platelet was counted using a multi-parameter automatic hemocyte counter (K4500, Sysmex), and the PRP was diluted to approximately 300,000/μl with the PPP. The platelet aggregation activity was determined in the following manner using an Aggregometer (MC Medical). GPRP-NH2 (final concentration 1 mM, 25 μl) was added as a fibrin polymerization inhibitor to the PRP (175 μl), after which Ca-free Tyrode solution (control) or the test compound suspension (25 μl) at different concentrations was added, incubation was performed at 37° C. for 3 minutes and then 25 μl of thrombin at the minimum concentration required to produce maximum aggregation (final concentration: optimum concentration among 0.5–1.5 units/ml) was added, for initiation of platelet aggregation. PRP and Ca-free Tyrode solution (control) or the preparation solutions at various concentrations were pre-incubated at 37° C. for 60 minutes, prior to the platelet aggregation reaction in some experiments. After addition of thrombin, the aggregation reaction was examined for 6 minutes and the areas under the aggregation curves were compared to determine the inhibition ratio, from which the IC50 value was calculated.

[3] = system: Vascular smooth muscle cells (rSMC); test: Rat smooth muscle cell proliferation assay; assay type: cell-based; conditions: 48 h; male SD rat aorta rSMC; thrombin 0.1 unit/ml; 2 days; MTT, OD 590 nm; read-out: Rat SMC IC50
Protocol: [Rat Smooth Muscle Cell Proliferation Assay]
Vascular smooth muscle cells (rSMC) were isolated from male SD rat aorta by the explant method. DMEM medium (Sigma) containing 10% fetal bovine serum (GibcoBRL), streptomycin and penicillin was used as the proliferation medium, and subculture was carried out at 37° C. in the presence of 5% CO2. Culture was initiated after adding 100 μl of rSMC suspension in proliferation medium at a concentration of 1×10^4 cells/ml, to a 96-well plate. After 3 days, cells were rinsed twice with 100 μl of DMEM medium, the medium was exchanged with 100 μl of DMEM medium containing 0.1% albumin (starvation medium), and serum starvation was initiated. The medium was exchanged two days after the serum starvation, 80 μl of starvation medium and 10 μl of the test compound diluted to different concentrations with the starvation medium were added, and then 10 μl of thrombin dissolved in the starvation medium (final concentration: 0.1 unit/ml) was added prior to further incubation for 2 days.
Upon adding 20 μl of MTT (3-[4,5-dimethylthiazol-2-yl]-2,5-diphenyltetrazolium bromide) dissolved in DPBS to 7.5 mg/ml, incubation was continued for 4 hours. The medium was removed by suction, 50 μl of a 10% SDS/0.029% ammonia solution was added, and the mixture was allowed to stand for 2 hours in a CO2 incubator for complete lysis of the cells. As an index of cell proliferation, the OD 590 nm was measured using a plate reader (EL340, BIO-TEK Instruments Inc.), and the control OD value (OD value in the absence of the test compound) minus the OD value in the presence of the test compound was divided by the control OD value minus the blank OD value (OD value without thrombin stimulation) to determine the inhibition ratio, from which the IC50 value was calculated.

[4] = platelet membrane of healthy adult, 25 nM [3H] high affinity TRAP, 37° C., 1 hour, read-out: RBA IC50
[5] = PRP of healthy adult, aggregation initiated with thrombin (0.5–1.5 units/ml), area under aggregation curve, 6 minutes

CCOc1cc2c(c(F)c1OCC)C(=N)N(CC(=O)c1cc3c(c(C(C)(C)C)c1)OCCN3CC#N)C2 [Example 5, {8-tert-Butyl-6-[2-(5,6-diethoxy-7-fluoro-1-imino-1,3-dihydro-isoindol-2-yl)acetyl]-2,3-dihydrobenzo[1,4]oxazin-4-yl}acetonitrile hydrobromide]
IC50 [1, 4]: 17 nM | IC50 [2, 5]: 290 nM | IC50 [3]: 6.1 nM

CCOc1cc2c(c(F)c1OCC)C(=N)N(CC(=O)c1cc(N(C)C)c(OC)c(C(C)(C)C)c1)C2 [Example 6, 1-(3-tert-Butyl-5-dimethylamino-4-methoxy-phenyl)-2-(5,6-diethoxy-7-fluoro-1-imino-1,3-dihydro-isoindol-2-yl)-ethanone hydrobromide]
IC50 [1, 4]: 24 nM | IC50 [2, 5]: 72 nM | IC50 [3]: 19 nM

CCOc1cc2c(c(F)c1OCC)C(=N)N(CC(=O)c1cc(N3CCOCC3)c(OC)c(C(C)(C)C)c1)C2 [Example 7]
IC50 [1, 4]: 26 nM | IC50 [2, 5]: 41 nM | IC50 [3]: 32 nM

CCOc1cc2c(c(F)c1OCC)C(=N)N(CC(=O)c1cc(N3CCC(O)CC3)c(OC)c(C(C)(C)C)c1)C2 [Example 8, 1-[3-tert-Butyl-5-(4-hydroxy-piperidin-1-yl)-4-methoxyphenyl]-2-(5,6-diethoxy-7-fluoro-1-imino-1,3-dihydro-isoindol-2-yl)-ethanone hydrobromide]
IC50 [1, 4]: 29 nM | IC50 [2, 5]: 84 nM | IC50 [3]: 23 nM

CCOc1cc2c(c(F)c1OCC)C(=N)N(CC(=O)c1cc(NCC#N)c(OC)c(C(C)(C)C)c1)C2 [Example 10, (3-tert-Butyl-5-[2-(5,6-diethoxy-7-fluoro-1-imino-1,3-dihydro-isoindol-2-yl)-acetyl]-2-methoxy-phenylamino}-acetonitrile hydrobromide]
IC50 [1, 4]: 26 nM | IC50 [2, 5]: 24 nM | IC50 [3]: 34 nM

CCOc1cc2c(c(F)c1OCC)C(=N)N(CC(=O)c1cc(N3CCN(CC#N)CC3)c(OC)c(C(C)(C)C)c1)C2 [Example 11, (4-{3-tert-Butyl-5-[2-(5,6-diethoxy-7-fluoro-1-imino-1,3-dihydro-isoindol-2-yl)-acetyl]-2-methoxy-phenyl}piperazin-1-yl)-acetonitrile hydrobromide]
IC50 [1, 4]: 45 nM | IC50 [2, 5]: 57 nM | IC50 [3]: 75 nM

CCOc1cc2c(c(F)c1OCC)C(=N)N(CC(=O)c1cc(N3C[C@@H](O)[C@H](OC)C3)c(OC)c(C(C)(C)C)c1)C2 [Example 12, 1-[3-tert-Butyl-5-((3R,4R)-3-hydroxy-4-methoxy-pyrrolidin-1-yl)-4-methoxy-phenyl]-2-(5,6-diethoxy-7-fluoro-1-imino-1,3-dihydro-isoindol-2-yl)-ethanone trifluoroacetate]
IC50 [1, 4]: 45 nM | IC50 [2, 5]: 41 nM | IC50 [3]: 21 nM

CCOc1cc2c(c(F)c1OCC)C(=N)N(CC(=O)c1cc(N3CCN(C(C)=O)CC3)c(OC)c(C(C)(C)C)c1)C2 [Example 13, 1-[3-(4-Acetyl-piperazin-1-yl)-5-tert-butyl-4-methoxy-phenyl]-2-(5,6-diethoxy-7-fluoro-1-imino-1,3-dihydro-isoindol-2-yl)ethanone hydrobromide]
IC50 [1, 4]: 46 nM | IC50 [2, 5]: 45 nM | IC50 [3]: 120 nM

CCOc1cc2c(c(F)c1OCC)C(=N)N(CC(=O)c1cc(N3CCN(C(=O)COC)CC3)c(OC)c(C(C)(C)C)c1)C2 [Example 16, 1-{3-tert-Butyl-4-methoxy-5-[4-(2-methoxy-acetyl)piperazin-1-yl]phenyl}-2-(5,6-diethoxy-7-fluoro-1-imino-1,3-dihydro-isoindol-2-yl)-ethanone hydrobromide]
IC50 [1, 4]: 53 nM | IC50 [2, 5]: 57 nM | IC50 [3]: 59 nM

CCOc1cc2c(c(F)c1OCC)C(=N)N(CC(=O)c1cc(N3C[C@H](OCC)[C@@H](O)C3)c(OC)c(C(C)(C)C)c1)C2 [Example 17, 1-[3-tert-Butyl-5-((3S,4S)-3-ethoxy-4-hydroxy-pyrrolidin-1-yl)-4-methoxy-phenyl]-2-(5,6-diethoxy-7-fluoro-1-imino-1,3-dihydro-isoindol-2-yl)ethanone trifluoroacetate]
IC50 [1, 4]: 32 nM | IC50 [2, 5]: 80 nM

CCOc1cc2c(c(F)c1OCC)C(=N)N(CC(=O)c1cc(NC(C)C)c(OC)c(C(C)(C)C)c1)C2 [Example 26, 1-(3-tert-Butyl-5-isopropylamino-4-methoxy-phenyl)-2-(5,6-diethoxy-7-fluoro-1-imino-1,3-dihydro-isoindol-2-yl)-ethanone hydrobromide]
IC50 [1, 4]: 17 nM | IC50 [2, 5]: 79 nM | IC50 [3]: 62 nM

CCOc1cc(C(=O)CN2Cc3cc(OCC)c(OCC)c(F)c3C2=N)cc(C(C)(C)C)c1OC [Example 28, 1-(3-tert-Butyl-5-ethoxy-4-methoxy-phenyl)-2-(5,6-diethoxy-7-fluoro-1-imino-1,3-dihydro-isoindol-2-yl)-ethanone hydrobromide]
IC50 [1, 4]: 26 nM | IC50 [2, 5]: 44 nM | IC50 [3]: 50 nM

CCNC(=O)Oc1c(OCC)cc(C(=O)CN2Cc3cc(OCC)c(OCC)c(F)c3C2=N)cc1C(C)(C)C [Example 29, 2-tert-butyl-4-[2-(5,6-diethoxy-7-fluoro-1-imino-1,3-dihydro-isoindol-2-yl)-acetyl]-6-ethoxy-phenyl ethylcarbamate hydrobromide]
IC50 [1]: 76 nM | IC50 [2]: 52 nM | IC50 [3]: 70 nM

CCOc1cc2c(c(F)c1OCC)C(=N)N(CC(=O)c1cc(N3CCC(=O)CC3)c(OC)c(C(C)(C)C)c1)C2 [Example 94, 1-{3-tert-Butyl-5-[2-(5,6-diethoxy-7-fluoro-1-imino-1,3-dihydro-isoindol-2-yl)-acetyl]-2-methoxy-phenyl}-piperidin-4-one hydrobromide]
IC50 [1, 4]: 13 nM | IC50 [2, 5]: 29 nM | IC50 [3]: 44 nM
